Measured values published in ChEMBL document CHEMBL1156829 (Proc Natl Acad Sci U S A, 2008).

Columns and labels:
[1] = test system: Plasmodium falciparum; test: NOVARTIS: Inhibition of Plasmodium falciparum W2 (drug-resistant) proliferation in erythrocyte-based infection assay; format: functional, organism-based; settings: Plasmodium falciparum, W2; read-out: EC50
[2] = NOVARTIS: Cytotoxicity against human hepatocellular carcinoma cell line (Huh7); format: toxicity, cell-based, Huh-7; settings: Huh7 cells (hepatocellular carcinoma cell line)
[3] = test system: Plasmodium falciparum; test: NOVARTIS: Inhibition of Plasmodium falciparum 3D7 (drug-susceptible) proliferation in erythrocyte-based infection assay; format: functional, organism-based; settings: Plasmodium falciparum, 3D7

Row | Compound | EC50 [1] [nM] | CC50 [2] [nM] | EC50 [3] [nM]
1 | CN(C)c1ccc(C(=C2C=CC(=[N+](C)C)C=C2)c2ccc(N(C)C)cc2)cc1 [GENTIAN VIOLET] | 170 | 1430 | 22.1
2 | CC(=O)OC1C(NC(=O)c2cc([N+](=O)[O-])c(N(C)C)c([N+](=O)[O-])c2)OC(C(=O)N2CCOCC2)C(OC(C)=O)C1OC(C)=O (centres undefined) | > 1250 | > 10000 | > 1090
3 | C=C[C@H]1CN2CC[C@H]1C[C@@H]2[C@@H](O)c1ccnc2ccc(OC)cc12 [QUINIDINE] | 35.2 | 50800 | 9.59
4 | O=[N+]([O-])c1cccc2c1nnn2C12CC3CC(CC(O)(C3)C1)C2 | 245 | > 100000 | 536
5 | NCCCC[C@H]1C(=O)Nc2ccc(O)cc2C(=O)N1C(C(=O)NCC(=O)O)c1cccnc1 (some centres undefined) | < 6.3 | > 12100 | 115
6 | O=C(CN1CCN(C(=O)c2ccccc2)CC1)Nc1ccc(-c2nc3cc(NC(=O)CN4CCN(C(=O)c5ccccc5)CC4)ccc3o2)cc1 | 146 | > 100000 | 235
7 | CCC1CN2CCC1CC2C(O)c1ccnc2ccccc12 (centres undefined) | 627 | > 100000 | 299
8 | CCN1/C(=C/c2sc3ccc(-c4ccccc4)cc3[n+]2CCO)C=Cc2ccccc21 | 1340 | > 10000 | 955
9 | CCN1CCC(NC2CCCc3c2[nH]c2ccc([N+](=O)[O-])cc32)CC1 (centres undefined) | 337 | 14500 | 497
10 | CC1CCC(C(C)C)C(OC(=O)Cn2c(-c3ccccc3)[n+](C)c3ccccc32)C1 (centres undefined) | 426 | > 11200 | 376
11 | COc1ccccc1NC1=C(N2CCCCC2)C(=O)c2ccccc2C1=O | 40.1 | 7870 | 28
12 | O=C1NC(=S)N/C1=C\C=C\c1ccc([N+](=O)[O-])o1 | 2200 | > 10000 | > 881
13 | CCCn1c(SCC(=O)N2c3ccccc3CC2C)nc2c1c(=O)n(C)c(=O)n2C (centres undefined) | < 27.1 | > 10000 | > 1250
14 | CC1=C(CC(=O)c2cccs2)C(=O)c2ccccc2C1=O | 290 | 7750 | 1240
15 | O=C1CN(C(=O)CCC2CCCCC2)C(c2ccc(F)cc2)c2cc(F)ccc2N1 (centres undefined) | 365 | 64400 | 566
16 | CN(CCCNc1ccnc2cc(Cl)ccc12)C(=O)c1ccc(C(F)(F)F)cc1 | 319 | 64600 | 166
17 | CC1=CC(=C(C#N)c2nc3ccccc3s2)C=C(C)N1c1ccc2c(c1)OCO2 | 3710 | > 100000 | 1040

Row | Compound | EC50 [1] [nM] | CC50 [2] [nM] | EC50 [3] [nM]
18 | N#CC(C#N)C(C(Sc1ccc([N+](=O)[O-])cc1)=C(O)c1ccccc1)c1cccs1 (centres undefined) | 661 | 17700 | 1350
19 | CCN1CCN(Cc2cc(=O)oc3cc(-c4ccccc4)c(O)cc23)CC1 | 385 | 12500 | 284
20 | CCCCCC[P+](N(CCC)CCC)(N(CCC)CCC)N(CCC)CCC | 95.6 | 1160 | 70.4
21 | O=C(NCCCCNC(=O)Nc1cccc(C2=NCCN2)c1)Nc1cccc(C2=NCCN2)c1 | 67.2 | > 10000 | 203
22 | O=C(C[n+]1ccc(/C=N/O)cc1)NC12CC3CC(CC(C3)C1)C2 | 3070 | 42200 | > 12500
23 | CC1CC2CCC(O2)C(C)C(=O)O[C@H](C)CC2CCC(O2)C(C)C(=O)OC(C)CC2CCC(O2)C(C)C(=O)O[C@H](C)CC2CCC(O2)C(C)C(=O)O1 (some centres undefined) | 699 | > 6250 | 645
24 | Cn1ccnc1C1CCCCN1C(=O)c1cc(COc2ccc(F)cc2Cl)on1 (centres undefined) | 673 | > 100000 | 1830
25 | NC(=S)NN=CC(=NNC(N)=S)c1ccccc1 | 37.6 | > 10000 | 48.1
26 | CCC(C)NC(=O)C1CSC(c2cccc(F)c2)N1C(=O)c1cc(OC)c(OC)c(OC)c1 (centres undefined) | 29.8 | > 654 | > 1250
27 | O=C(O)CC12CC3CC(C1)CC(c1ccc([N+](=O)[O-])cc1)(C3)C2 | > 1250 | > 10000 | > 883
28 | O=C(Nc1cccc(-c2nc3ccccc3[nH]2)c1)c1ccccc1[N+](=O)[O-] | > 772 | > 6000 | > 1720
29 | Oc1cccc(Nc2nc(NCC3CCCO3)c3ccccc3n2)c1 (centres undefined) | 341 | 6980 | 266
30 | COc1ccccc1NC1=CC(=NS(=O)(=O)c2cccs2)c2ccccc2C1=O | 906 | 19700 | 1070
31 | CCOc1ccc(CCNC(=O)Nc2ccc(F)cc2)cc1OCC | 492 | > 74700 | 751
32 | Brc1ccc(/C=C/c2cc[n+](Cc3ccccc3)cc2)cc1 | 66.6 | > 10000 | 112
33 | CCOc1cccc(C2=Nc3cc(C(=O)NC(C)C)ccc3CN2CC2CCCCC2)c1 | 26.7 | > 10000 | > 1250
